{"source": "paper PMC10644327", "about": "“A randomized, double‐blind phase 1b study evaluating the safety, tolerability, pharmacokinetics and pharmacodynamics of the NLRP3 inhibitor selnoflast in patients with moderate to severe active ulcerative colitis” (Clinical and Translational Medicine, 2023)", "key": {"[1]": {"test_system": "IL‐1β release in whole blood", "test": "Inhibition of IL‐1β release in whole blood upon ex vivo stimulation with LPS (TruCulture), UC patients", "design": "species or system human", "settings": "for Inhibition of IL‐1β release compared to baseline: 450 mg", "protocol": "(§1) Blood samples were drawn pre‐dose and at various timepoints and placed in TruCulture whole blood collection and culture tubes that were pre‐filled with lipopolysaccharide (LPS) (final working concentration of 100 ng/mL LPS after addition of 1 mL of blood to the LPS‐containing Truculture tubes). Following 24 h incubation, TruCulture supernatants were collected, stored, and levels of secreted IL‐1β were subsequently measured in order to understand how these responded to NLRP3 inhibition by selnoflast. The levels of IL‐1β were also quantified in plasma K2EDTA samples using the same SIMOA IL‐1β Assay Kit (Quanterix). The quantitative range of the method was 0.196 to 490 pg/mL for plasma and 4.01 to 1470 pg/mL in Truculture supernatants. Plasma samples were also assessed for IL‐18, using a commercial SIMOA IL‐18 Assay Kit (Quanterix; the quantitative range for plasma was 0.0200–45.0 pg/mL)."}, "IL‐18": {"test_system": "IL‐18", "test": "Plasma IL‐18 (SIMOA) in UC patients", "assay_type": "in vivo, human", "settings": "450 mg QD, 7 days", "protocol": "as §1"}, "[2]": {"test_system": "IL‐1β release in activated human monocyte‐derived macrophages", "design": "method as in unpublished results", "settings": "in vitro, ref unpublished results; cited from earlier work"}, "P-glycoprotein (P-gP)": {"test_system": "P-glycoprotein (P-gP)", "design": "method as in Investigator Brochure", "settings": "in vitro studies; ref Investigator Brochure; cited from earlier work"}, "[3]": {"test": "Safety and tolerability in patients with ulcerative colitis", "assay_type": "in vivo, human", "description": "The primary objective of this study was to evaluate the PK, safety, and tolerability of selnoflast. The main endpoints were the incidence and severity of adverse events (AEs), changes in vital signs, 12‐lead electrocardiogram (ECG) parameters, and clinical laboratory safety parameters. AEs were monitored throughout the study and at the 14‐day follow‐up visit. Safety assessments included recording of the incidence and type of treatment‐emergent adverse events (TEAEs), discontinuations, serious TEAEs, and adverse events of special interest (AESIs) (including cases of elevated alanine aminotransferase [ALT] or aspartate aminotransferase [AST] in combination with either elevated bilirubin or clinical jaundice). Vital signs, ECGs, blood chemistry and hematology panels, coagulation panels and urinalysis were assessed at screening and at various time points during the study. Changes in absolute lymphocyte count were also assessed. Blood samples for PK analyses were obtained pre‐dose and at various timepoints up to 24 h post‐dose throughout the 7‐day in‐clinic treatment period, as well as once during the 14‐day follow‐up visit. As the 1‐week duration of the study was too short for assessing clinical changes, no clinical assessments were planned. Further details are given in the study protocol (Supporting Information)."}, "[4]": {"design": "method as in Investigator Brochure", "settings": "ref Investigator Brochure, cited from earlier work"}, "IL‐1β": {"test_system": "IL‐1β", "test": "IL‐1β IC90 calculated from in vitro studies", "assay_type": "cell-based", "settings": "estimated"}, "NLRC4": {"test_system": "NLRC4", "design": "method as in unpublished results", "settings": "ref unpublished results; cited from earlier work"}, "[5]": {"design": "method as in Investigator Brochure", "settings": "ref Investigator Brochure, cited from earlier work", "remark": "listed apart in the source"}, "[6]": {"test_system": "IL‐1β release in ex vivo stimulated whole blood", "design": "method as in unpublished results, study IZD334-001", "settings": "healthy subjects, 450 mg QD, ref unpublished results, study IZD334-001, cited from earlier work"}, "[7]": {"settings": "cited from earlier work"}, "sigmoid colon tissue": {"test_system": "sigmoid colon tissue", "test": "Histology of sigmoid colon biopsies (Geboes score, Nancy index, neutrophils)", "assay_type": "in vivo, human", "protocol": "(§2) Tissue biopsies from the sigmoid colon were obtained before start of treatment (up to Day −3) and at the end of treatment (Day 7). For operational reasons, biopsies were taken 2−4.5 h post‐dose on Day 7. Stool samples were obtained at screening, before start of treatment, throughout the study, and at the 14‐day follow‐up visit. Levels of calprotectin were determined in stool samples. Sigmoid colon tissue was processed for RNA and DNA extraction as well as for single‐cell analysis, subsequent transcriptomic analysis, and identification of PD biomarkers. Sigmoid colon tissue samples were also processed for histology (hematoxylin and eosin staining, immunohistochemistry, fluorescence in situ hybridization) in order to characterize the cell types present (i.e., neutrophils and inflammatory monocytes). Histological analysis was performed on sigmoid colon tissue samples (from baseline and Day 7) using the disease‐specific histological indices Geboes score[23] and Nancy index.[24] Caspase‐1 (pro and active form) was assessed using a validated WES‐assay (manuscript in preparation)."}, "calprotectin": {"test_system": "calprotectin", "test": "Stool calprotectin in UC patients", "assay_type": "in vivo, human", "settings": "Day 7, mean (± SD), selnoflast arm; results called uninterpretable (8/19 baseline samples not per protocol)", "protocol": "as §2"}, "AIM2": {"test_system": "AIM2", "design": "method as in unpublished results", "settings": "ref unpublished results; cited from earlier work"}}, "note": "Read-outs that look alike come from different tables or passages of the source.", "data": [{"smiles": "CCN1CCC(S(=O)(=O)NC(=O)Nc2c3c(cc4c2CCC4)CCC3)CC1", "note": "[Selnoflast, selnoflast]", "values": [{"measurement": "Inhibition of IL‐1β release compared to baseline", "setting": "[1]; Day 1, from 30 min until at least 10 h post‐dose, mean (± SD)", "result": "> 95", "unit": "%"}, {"measurement": "inhibition at 450 mg", "setting": "[1]; Homo sapiens, at trough (25–100 h post‐dose), 450 mg QD, read-out: Inhibition of IL‐1β release compared to baseline", "result": "~90", "unit": "%"}, {"measurement": "Inhibition of IL‐1β release compared to baseline", "setting": "[1]; just before the next administration on Day 2, mean (SD)", "result": 91.2, "unit": "%"}, {"measurement": "Change in plasma IL‐18 levels upon treatment", "setting": "IL‐18", "result": "no significant changes"}, {"measurement": "Inhibition of IL‐1β release", "setting": "[2]", "result": "potent inhibitor"}, {"measurement": "P-gp substrate status", "setting": "P-glycoprotein (P-gP)", "result": "potential substrate"}, {"measurement": "Deaths", "setting": "[3]; N = 13", "result": 0}, {"measurement": "Patients with at least one AE with fatal outcome", "setting": "[3]; N = 13", "result": 0}, {"measurement": "AEs considered treatment‐related", "setting": "[3]; human, in vivo, 7 days", "result": 23.1, "unit": "%"}, {"measurement": "Dyspepsia, patients", "setting": "[3]; human, in vivo, 7 days", "result": 15.4, "unit": "%"}, {"measurement": "Headache, patients", "setting": "[3]; human, in vivo, 7 days", "result": 15.4, "unit": "%"}, {"measurement": "Patients with at least one AE leading to dose modification/interruption", "setting": "[3]; human, in vivo, 7 days", "result": 0}, {"measurement": "Patients with at least one AE leading to withdrawal from treatment", "setting": "[3]; human, in vivo, 7 days", "result": 0}, {"measurement": "Patients with at least one Related AE", "setting": "[3]; human, in vivo, 7 days", "result": "3 (23.1%)"}, {"measurement": "Patients with at least one Related AE leading to dose modification/ interruption", "setting": "[3]; human, in vivo, 7 days", "result": 0}, {"measurement": "Patients with at least one Related AE leading to withdrawal from treatment", "setting": "[3]; human, in vivo, 7 days", "result": 0}, {"measurement": "Patients with at least one Serious AE", "setting": "[3]; human, in vivo, 7 days", "result": 0}, {"measurement": "Patients withdrawn from study due to AE", "setting": "[3]; human, in vivo, 7 days", "result": 0}, {"measurement": "Severity of AEs", "setting": "[3]; human, in vivo, 7 days", "result": "mild (Grade 1), with the exception of one AE of Grade 2 severity"}, {"measurement": "Signs of hepatotoxicity", "setting": "[4]; 39-week GLP study, monkey", "result": "no signs of hepatotoxicity"}, {"measurement": "Bacterial, viral, fungal, and other opportunistic infections", "setting": "[4]; monkeys, nonclinical toxicology studies", "result": "No evidence"}, {"measurement": "IL‐1β IC90 (tissue)", "setting": "IL‐1β", "result": 1.94, "unit": "µg/g"}, {"measurement": "IC90", "setting": "IL‐1β; read-out: IL‐1β IC90 (plasma)", "result": 2, "unit": "µg/mL"}, {"measurement": "Inhibitory activity on NLRC4 inflammasome", "setting": "NLRC4", "result": "no inhibitory activity"}, {"measurement": "Signs of hepatotoxicity", "setting": "[5]; 26-week GLP study, rat", "result": "no signs of hepatotoxicity"}, {"measurement": "Bacterial, viral, fungal, and other opportunistic infections", "setting": "[5]; rats, nonclinical toxicology studies", "result": "No evidence"}, {"measurement": "Inhibition of IL‐1β release compared to baseline", "setting": "[6]; over the dosing interval (24 hours)", "result": "over 90%"}, {"measurement": "Inhibition of IL‐1β release compared to baseline", "setting": "[6]; over the dosing interval (24 hours), listed as RO7486967", "result": 90, "unit": "%"}, {"measurement": "Inhibition of IL‐1β release compared to baseline", "setting": "[6]; up to 10 h post‐dose", "result": 99, "unit": "%"}, {"measurement": "Dose dependence of systemic exposure", "setting": "[7]; healthy subjects, 20 to 600 mg, ref unpublished results, IZD334‐001", "result": "approximately dose‐proportional"}, {"measurement": "Median Tmax", "setting": "[7]; healthy subjects, single administration, 20 to 600 mg, fasted, ref unpublished results, IZD334‐001", "result": "30 to 360", "unit": "min"}, {"measurement": "Steady‐state achieved", "setting": "[7]; healthy subjects, ref unpublished results, IZD334‐001", "result": "Day 2"}, {"measurement": "Change in exposure on repeat dosing", "setting": "[7]; healthy volunteers, repeat dosing for 7 days, ref study IZD334-001", "result": "no indication of a change"}, {"measurement": "half-life", "setting": "[7]; healthy volunteers, ref study IZD334-001", "result": "approximately 7 hours"}, {"measurement": "Geboes score and Nancy index, difference between study arms", "setting": "sigmoid colon tissue; baseline and Day 7", "result": "No notable differences"}, {"measurement": "Neutrophils in sigmoid colon tissue, change from baseline", "setting": "sigmoid colon tissue; mean (± SD), active treatment arm, Day 7", "result": "−13.23 (± 140.76) cells/mm^2"}, {"measurement": "Patients with marked reduction from baseline in neutrophils in sigmoid colon tissue", "setting": "sigmoid colon tissue; selnoflast‐treated patients, Day 7", "result": "Three out of the 13"}, {"measurement": "Stool calprotectin change from baseline", "setting": "calprotectin", "result": "+4146.6 (± 12321.12) μg/g"}, {"measurement": "Inhibitory activity on AIM2 inflammasome", "setting": "AIM2", "result": "no inhibitory activity"}]}]}
